Among the data in US11078197B2, “5-membered and bicyclic heterocyclic amides as inhibitors of rock” (BRISTOL-MYERS SQUIBB COMPANY, priority 2017, dated 2021) are IC50 values, retold here.

SMILES strings stand for the structures. pIC50: −log10 of the molar value.

In general, pIC50 refers to the IC50 on a negative log10 scale, so that one unit is a factor of ten. Lower therefore signals a large IC50.

ROCK2, sequence (O75116 whole entry, species assumed): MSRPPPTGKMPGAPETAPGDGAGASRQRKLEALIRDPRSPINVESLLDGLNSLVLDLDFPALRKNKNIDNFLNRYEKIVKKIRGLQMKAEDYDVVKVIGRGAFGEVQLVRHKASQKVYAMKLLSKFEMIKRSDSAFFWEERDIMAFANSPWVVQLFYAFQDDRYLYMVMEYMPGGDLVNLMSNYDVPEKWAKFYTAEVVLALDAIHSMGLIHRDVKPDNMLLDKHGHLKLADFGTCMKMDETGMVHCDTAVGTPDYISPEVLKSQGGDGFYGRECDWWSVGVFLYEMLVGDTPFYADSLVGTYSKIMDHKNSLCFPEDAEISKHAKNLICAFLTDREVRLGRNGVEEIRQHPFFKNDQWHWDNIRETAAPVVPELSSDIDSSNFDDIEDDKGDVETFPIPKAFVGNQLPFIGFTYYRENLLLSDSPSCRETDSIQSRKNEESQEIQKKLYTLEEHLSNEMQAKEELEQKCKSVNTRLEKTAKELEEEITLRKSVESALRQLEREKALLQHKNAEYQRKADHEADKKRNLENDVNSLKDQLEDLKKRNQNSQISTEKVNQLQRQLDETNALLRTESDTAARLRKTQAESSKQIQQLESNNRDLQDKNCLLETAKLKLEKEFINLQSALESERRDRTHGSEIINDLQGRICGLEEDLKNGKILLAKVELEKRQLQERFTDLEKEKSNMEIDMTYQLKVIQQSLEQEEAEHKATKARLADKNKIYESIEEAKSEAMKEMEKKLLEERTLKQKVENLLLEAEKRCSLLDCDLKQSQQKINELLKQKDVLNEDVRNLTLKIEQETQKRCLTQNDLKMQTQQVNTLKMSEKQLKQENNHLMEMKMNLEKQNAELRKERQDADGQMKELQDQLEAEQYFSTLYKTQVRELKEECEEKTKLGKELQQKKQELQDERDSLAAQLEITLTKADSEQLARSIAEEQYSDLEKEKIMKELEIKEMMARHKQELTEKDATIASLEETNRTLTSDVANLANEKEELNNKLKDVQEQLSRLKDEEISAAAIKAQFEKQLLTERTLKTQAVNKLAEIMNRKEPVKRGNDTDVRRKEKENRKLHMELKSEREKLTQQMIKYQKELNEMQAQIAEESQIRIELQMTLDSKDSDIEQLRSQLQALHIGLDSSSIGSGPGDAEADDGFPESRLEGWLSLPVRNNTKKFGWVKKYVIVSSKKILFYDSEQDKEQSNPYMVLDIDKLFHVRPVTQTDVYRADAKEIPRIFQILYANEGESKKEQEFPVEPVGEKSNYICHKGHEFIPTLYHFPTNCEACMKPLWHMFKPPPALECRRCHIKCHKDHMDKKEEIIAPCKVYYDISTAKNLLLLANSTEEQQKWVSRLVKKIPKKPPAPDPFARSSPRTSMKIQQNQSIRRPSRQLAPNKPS

This test addresses ROCK2 (Homo sapiens (Human), UniProt O75116). In words: ROCK2 assay (peptide phosphorylation, LABCHIP 3000 Reader). The conditions noted are these: 5 μM ATP, 1.5 μM peptide substrate, dose-response. In kind it is biochemical. On the procedure: After incubation, the reaction was terminated by the addition of EDTA and the phosphorylated and non-phosphorylated peptides separated using a LABCHIP®3000 Reader (Caliper Life Sciences). […] Compounds were tested in dose-response format, and the inhibition of kinase activity was calculated at each concentration of compound. […] Representative Examples were tested in the ROCK2 assay described above and found having ROCK2 inhibitory activity.
Compound `NC(=O)c1cc2sccc2nc1OC1CC2(CC(NC(=O)C3CCC(C(F)(F)F)CC3)C2)C1` (centres unmarked) [Example 9, 5-((6-(4-(Trifluoromethyl)cyclohexane-1-carboxamido)spiro[3.3]heptan-2-yl)oxy)thieno[3,2-b]pyridine-6-carboxamide] gave a pIC50 of 6.46.
To `CC(C)CC1NC(=O)N([C@H]2C[C@@]3(C[C@H](Oc4nc(C5CC5)sc4C(N)=O)C3)C2)C1=O` (some centres unmarked) [Example 10] belongs 7.56.
Next, `NC(=O)c1sc(C2CC2)nc1O[C@H]1CC2(C[C@H](NC(=O)c3cnn4cc(OCC(F)F)ccc34)C2)C1` (stereo partly drawn) [Example 11, 2-cyclopropyl-4-(((aR)-6-(6-(2,2-difluoroethoxy)pyrazolo[1,5-a]pyridine-3-carboxamido)spiro[3.3]heptan-2-yl)oxy)thiazole-5-carboxamide]: 7.63.
To `CC(C)(O)COc1ccc2c(C(=O)NC3CC4(C3)CC(Oc3nc5c(cc3C(N)=O)COCC5)C4)cnn2c1` [Example 12, 6-(2-hydroxy-2-methylpropoxy)-N-[(aR)-6-({3-carbamoyl-5H,7H,8H-pyrano[4,3-b]pyridin-2-yl}oxy)spiro[3.3]heptan-2-yl]pyrazolo[1,5-a]pyridine-3-carboxamide] belongs 7.40.
Regarding `NC(=O)c1cc2c(nc1O[C@H]1C[C@]3(C1)C[C@H](N1C(=O)CN(Cc4ccccc4)CC1=O)C3)CCOC2` (some centres unmarked) [Example 13], the pIC50 was 6.24.
To `Cn1cc(C(N)=O)c(O[C@H]2C[C@@]3(C[C@H](NC(=O)c4cnn5c(C6CC6)c(OCC(C)(C)O)ccc45)C3)C2)n1` (stereo partly drawn) [Example 14, 3-({(aR)-6-[7-cyclopropyl-6-(2-hydroxy-2-methylpropoxy)pyrazolo [1,5-a]pyridine-3-amido]spiro[3.3]heptan-2-yl}oxy)-1-methyl-1H-pyrazole-4-carboxamide] belongs 7.85.
To `CC(C)(O)COc1ccc2c(C(=O)N[C@H]3C[C@]4(C3)C[C@H](Oc3nn(-c5ccccc5)cc3C(N)=O)C4)cnn2c1C1CC1` (stereo partly drawn) [Example 15, 3-({(aR)-6-[7-cyclopropyl-6-(2-hydroxy-2-methylpropoxy)pyrazolo [1,5-a]pyridine-3-amido]spiro[3.3]heptan-2-yl}oxy)-1-phenyl-1H-pyrazole-4-carboxamide] belongs 7.90; to `CC(C)(O)COc1ccc2c(C(=O)N[C@H]3C[C@]4(C3)C[C@H](Oc3nc(-c5ccccc5)sc3C(N)=O)C4)cnn2c1` (stereo partly drawn) [Example 17, 4-({(aR)-6-[6-(2-hydroxy-2-methylpropoxy)pyrazolo [1,5-a]pyridine-3-amido]spiro[3.3]heptan-2-yl}oxy)-2-phenyl-1,3-thiazole-5-carboxamide], 7.73; to `CC(C)(O)COc1ccc2c(C(=O)N[C@H]3C[C@]4(C3)C[C@H](Oc3nc(-c5ccccc5)sc3C(N)=O)C4)cnn2c1C1CC1` (stereo partly drawn) [Example 18, 4-({(aR)-6-[7-cyclopropyl-6-(2-hydroxy-2-methylpropoxy)pyrazolo [1,5-a]pyridine-3-amido]spiro[3.3]heptan-2-yl}oxy)-2-phenyl-1,3-thiazole-5-carboxamide], 7.87.
Next, `CCn1cc(C(N)=O)c(O[C@H]2C[C@@]3(C[C@H](NC(=O)c4cnn5c(C6CC6)c(OCC(C)(C)O)ccc45)C3)C2)n1` (stereo partly drawn) [Example 19, 3-({(aR)-6-[7-cyclopropyl-6-(2-hydroxy-2-methylpropoxy)pyrazolo [1,5-a]pyridine-3-amido]spiro[3.3]heptan-2-yl}oxy)-1-ethyl-1H-pyrazole-4-carboxamide]: 7.98; `CC(C)(O)COc1ccc2c(C(=O)NC3CC4(C3)CC(Oc3nn(CC5CCNCC5)cc3C(N)=O)C4)cnn2c1C1CC1` [Example 20, 3-({(aR)-6-[7-cyclopropyl-6-(2-hydroxy-2-methylpropoxy)pyrazolo [1,5-a]pyridine-3-amido]spiro[3.3]heptan-2-yl}oxy)-1-[(piperidin-4-yl)methyl]-1H-pyrazole-4-carboxamide]: 8.17.
The compound `Cc1nc(O[C@H]2C[C@@]3(C[C@H](NC(=O)c4cnn5cc(OCC(C)(C)O)ccc45)C3)C2)c(C(N)=O)s1` (stereo partly drawn) [Example 21, 4-({(aR)-6-[6-(2-hydroxy-2-methylpropoxy)pyrazolo [1,5-a]pyridine-3-amido]spiro[3.3]heptan-2-yl}oxy)-2-methyl-1,3-thiazole-5-carboxamide] had a pIC50 of 7.72.
Consider `Cc1nc(O[C@H]2C[C@@]3(C[C@H](NC(=O)c4cnn5c(C6CC6)c(OCC(C)(C)O)ccc45)C3)C2)c(C(N)=O)s1` (stereo partly drawn) [Example 22, 4-({(aR)-6-[7-cyclopropyl-6-(2-hydroxy-2-methylpropoxy)pyrazolo [1,5-a]pyridine-3-amido]spiro[3.3]heptan-2-yl}oxy)-2-methyl-1,3-thiazole-5-carboxamide], for which the pIC50 is 8.15.
Next, `COCCn1cc(C(N)=O)c(O[C@H]2C[C@@]3(C[C@H](NC(=O)c4cnn5c(C6CC6)c(OCC(C)(C)O)ccc45)C3)C2)n1` (stereo partly drawn) [Example 23, 3-({(aR)-6-[7-cyclopropyl-6-(2-hydroxy-2-methylpropoxy)pyrazolo [1,5-a]pyridine-3-amido]spiro[3.3]heptan-2-yl}oxy)-1-(2-methoxyethyl)-1H-pyrazole-4-carboxamide]: 7.11; `COCCn1ncc(C(N)=O)c1O[C@H]1C[C@@]2(C[C@H](NC(=O)c3cnn4c(C5CC5)c(OCC(C)(C)O)ccc34)C2)C1` (stereo partly drawn) [Example 24, 5-({(aR)-6-[7-cyclopropyl-6-(2-hydroxy-2-methylpropoxy)pyrazolo [1,5-a]pyridine-3-amido]spiro[3.3]heptan-2-yl}oxy)-1-(2-methoxyethyl)-1H-pyrazole-4-carboxamide]: 5.83.
For `Cc1nc(O[C@H]2C[C@@]3(C[C@H](NC(=O)c4nn(C(F)F)c5cc(OCC(C)(C)O)ccc45)C3)C2)c(C(N)=O)s1` (stereo partly drawn) [Example 25, N-{(aR)-6-[(5-carbamoyl-2-methyl-1,3-thiazol-4-yl)oxy]spiro[3.3]heptan-2-yl}-1-(difluoromethyl)-6-(2-hydroxy-2-methylpropoxy)-1H-indazole-3-carboxamide], the pIC50 is 8.19.
Next, `CC(C)(O)COc1ccc2c(C(=O)N[C@H]3C[C@]4(C3)C[C@H](Oc3[nH]ncc3C(N)=O)C4)cnn2c1C1CC1` (stereo partly drawn) [Example 26, 5-({(aR)-6-[7-cyclopropyl-6-(2-hydroxy-2-methylpropoxy)pyrazolo [1,5-a]pyridine-3-amido]spiro[3.3]heptan-2-yl}oxy)-1H-pyrazole-4-carboxamide]: 7.60; `CC(C)(O)COc1ccc2c(C(=O)N[C@H]3C[C@]4(C3)C[C@H](Oc3nn(CCCN)cc3C(N)=O)C4)cnn2c1C1CC1` (stereo partly drawn) [Example 27, 1-(3-aminopropyl)-3-({(aR)-6-[7-cyclopropyl-6-(2-hydroxy-2-methylpropoxy)pyrazolo [1,5-a]pyridine-3-amido]spiro[3.3]heptan-2-yl}oxy)-1H-pyrazole-4-carboxamide]: 7.86; `CC(C)(O)COc1ccc2c(C(=O)N[C@H]3CC4(C3)C[C@H](Oc3c(C(N)=O)cnn3CCCN)C4)cnn2c1C1CC1` (stereo partly drawn) [Example 28, 1-(3-aminopropyl)-5-({(aR)-6-[7-cyclopropyl-6-(2-hydroxy-2-methylpropoxy)pyrazolo [1,5-a]pyridine-3-amido]spiro[3.3]heptan-2-yl}oxy)-1H-pyrazole-4-carboxamide]: 6.26.
Next, `CC(C)(O)COc1ccc2c(C(=O)N[C@H]3C[C@]4(C3)C[C@H](Oc3nn(CCN)cc3C(N)=O)C4)cnn2c1C1CC1` (stereo partly drawn) [Example 29, 1-(2-aminoethyl)-3-({(aR)-6-[7-cyclopropyl-6-(2-hydroxy-2-methylpropoxy)pyrazolo [1,5-a]pyridine-3-amido]spiro[3.3]heptan-2-yl}oxy)-1H-pyrazole-4-carboxamide]: 6.60; `CC(C)(O)COc1ccc2c(C(=O)N[C@H]3C[C@]4(C3)C[C@H](Oc3nn(C(F)F)cc3C(N)=O)C4)cnn2c1C1CC1` (stereo partly drawn) [Example 30, 3-({(aR)-6-[7-cyclopropyl-6-(2-hydroxy-2-methylpropoxy)pyrazolo [1,5-a]pyridine-3-aimdo]spiro[3.3]heptan-2-yl}oxy)-1-(difluoromethyl)-1H-pyrazole-4-carboxamide]: 8.11.
`CC(C)(O)COc1ccc2c(C(=O)N[C@H]3C[C@]4(C3)C[C@H](Oc3nn(-c5ccccc5C#N)cc3C(N)=O)C4)cnn2c1C1CC1` (stereo partly drawn) [Example 31, 1-(2-cyanophenyl)-3-({(aR)-6-[7-cyclopropyl-6-(2-hydroxy-2-methylpropoxy)pyrazolo [1,5-a]pyridine-3-amido]spiro[3.3]heptan-2-yl}oxy)-1H-pyrazole-4-carboxamide] showed a pIC50 of 7.13.
For `Cn1cc(C(N)=O)c(O[C@H]2C[C@@]3(C[C@H](NC(=O)c4cnn5cc(N6CCOCC6)ccc45)C3)C2)n1` (stereo partly drawn) [Example 32, 1-methyl-3-({(aR)-6-[6-(morpholin-4-yl)pyrazolo[1,5-a]pyridine-3-amido]spiro[3.3]heptan-2-yl}oxy)-1H-pyrazole-4-carboxamide], the pIC50 is 7.52.
To `Cn1cc(C(N)=O)c(O[C@H]2C[C@@]3(C[C@H](NC(=O)c4cnn5cc(N6CC7(COC7)C6)ccc45)C3)C2)n1` (stereo partly drawn) [Example 33, 1-methyl-3-{[(aR)-6-(6-{2-oxa-6-azaspiro[3.3]heptan-6-yl}pyrazolo[1,5-a]pyridine-3-amido)spiro[3.3]heptan-2-yl]oxy}-1H-pyrazole-4-carboxamide] belongs 6.46; to `Cc1nc(O[C@H]2C[C@@]3(C[C@H](NC(=O)c4cnn5cc(N6CC(CO)(CCl)C6)ccc45)C3)C2)c(C(N)=O)s1` (stereo partly drawn) [Example 34, 4-[((aR)-6-{6-[3-(chloromethyl)-3-(hydroxymethyl)azetidin-1-yl]pyrazolo[1,5-a]pyridine-3-amido}spiro[3.3]heptan-2-yl)oxy]-2-methyl-1,3-thiazole-5-carboxamide], 7.76; to `CN1CCN(c2ccc3c(C(=O)N[C@H]4C[C@]5(C4)C[C@H](Oc4nn(C)cc4C(N)=O)C5)cnn3c2)CC1` (stereo partly drawn) [Example 35, 1-methyl-3-({(aR)-6-[6-(4-methylpiperazin-1-yl)pyrazolo[1,5-a]pyridine-3-amido]spiro[3.3]heptan-2-yl}oxy)-1H-pyrazole-4-carboxamide], 6.69.
